Data on four compounds can be found in US10556865B2, “Synergistic herbicidal composition containing certain pyridine or pyrimidine carboxylic acids and certain cereal and rice herbicides” (Dow AgroSciences, LLC, priority 2007, dated 2020).

Assay [1] concerns blackgrass (Alopecurus myosuroides L; ALOMY). Put plainly: Postemergence herbicidal activity of mixtures in cereal crops (greenhouse, visual injury 0-100 percent after 20-22 days). It counts as in vivo. An outline of the steps:
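Plants at second-third true leaf stage sprayed postemergence at 187 L/ha with compound and second cereal herbicide alone and combined; solvent blank controls. Visual injury scored 0-100% versus controls after 20-22 days; expected mixture effects by Colby's equation.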

In assay [2] the test system is Echinochloa species (ECHSS). Kind of assay: Herbicidal mixtures for weed control in transplanted paddy rice (in-water application, visual % injury after 3 weeks). It counts as in vivo. To be noted: for % Injury ECHOR Ob: ECHOR = Echinocloa oryzoides; for % Injury ECHCG Ob: ECHCG = Echinochloa crus-galli. In short, it runs like this:
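Mixtures injected into paddy water of flooded pots (transplanted rice, weeds at 2nd–3rd true leaf stage, ~29/26 °C greenhouse); compounds A, C, D dosed as acid equivalent, partners as active ingredient, in acetone/crop oil concentrate carrier. Injury scored visually after 3 weeks versus untreated plants, 0 (none) to 100% (complete kill).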

Where [3] appears, read: Compound A TEA 35 g/ha alone (Table 111).

`COC(=O)c1nc(-c2ccc(Cl)c(OC)c2F)cc(N)c1Cl` [Compound A Methyl, 4-amino-3-chloro-6-(4-chloro-2-fluoro-3-methoxyphenyl)pyridine-2-carboxylic acid methyl ester]: the “ALOMY Ob” value in assay [1] (17.5 g/ha, Table 1) is 0%; in assay [1] (17.5 g/ha, Table 2) it was 0%; in assay [1] (17.5 g/ha, Table 4) it was 0%; in assay [1] (17.5 g/ha, Table 5) it was 0%; in assay [1] (17.5 g/ha, Table 6), 0%; in assay [1] (35 g/ha, Table 1), 20%. Besides, the “ALOMY Ob” value was 20% in assay [1] (35 g/ha, Table 2); 30% in assay [1] (35 g/ha, Table 3); 30% in assay [1] (35 g/ha, Table 4); 30% in assay [1] (35 g/ha, Table 5); 30% in assay [1] (35 g/ha, Table 6); 3% in assay [1] (35 g/ha, Table 7). In addition, the “ALOMY Ob” value in assay [1] (70 g/ha, Table 1) is reported as 50%; in assay [1] (70 g/ha, Table 2), 50%; in assay [1] (70 g/ha, Table 3), 30%; in assay [1] (70 g/ha, Table 4) it was 30%; in assay [1] (70 g/ha, Table 5) it was 30%; in assay [1] (70 g/ha, Table 6), 30%. For the same compound, the “ALOMY Ob” value in assay [1] (70 g/ha, Table 7) was 20%; in assay [1] (140 g/ha, Table 7), 47%. Moreover, the “% Injury Ob” value worked out at 0% in assay [2] (ECHCG, 4.38 g/ha alone); 0% in assay [2] (ECHCG, 17.5 g/ha alone); 25% in assay [2] (ECHCG, 35 g/ha alone); 0% in assay [2] (ECHCO, 8.75 g/ha alone); 25% in assay [2] (ECHCO, 17.5 g/ha alone); 20% in assay [2] (ECHCO, 35 g/ha alone). Besides, the entries for the “% Injury ECHOR Ob” value in assay [2] (Compound A Methyl 17.5 g/ha alone) and in assay [2] (Compound A Methyl 35 g/ha alone) were 0% and 10%, respectively.

As for `COc1c(Cl)ccc(-c2cc(N)c(Cl)c(C(=O)O)n2)c1F` [Compound A TEA, 4-amino-3-chloro-6-(4-chloro-2-fluoro-3-methoxyphenyl)pyridine-2-carboxylic acid], the “ALOMY Ob” value is 0% in assay [1] (35 g/ha, Table 14); 0% in assay [1] (35 g/ha, Table 16); 0% in assay [1] (35 g/ha, Table 18); 0% in assay [1] (35 g/ha, Table 19); 0% in assay [1] (70 g/ha, Table 14); 0% in assay [1] (70 g/ha, Table 16). Further, the “ALOMY Ob” value in assay [1] (70 g/ha, Table 18) is 0%; in assay [1] (70 g/ha, Table 19), 0%; in assay [1] (140 g/ha, Table 14) it was 3%; in assay [1] (140 g/ha, Table 16), 0%; in assay [1] (140 g/ha, Table 18) it was 3%; in assay [1] (140 g/ha, Table 19) it was 0%. Moreover, the “% Injury ECHCG Ob” value was 10% in assay [2] (Compound A TEA 17.5 g/ha alone), 80% in assay [2] (Compound A TEA 35 g/ha alone) and 10% in assay [2] (setting [3]). Besides, the “% Injury Ob” value in assay [2] (ECHCG, 70 g/ha alone) is 50%. Also, the “% Injury ECHOR Ob” value in assay [2] (Compound A TEA 17.5 g/ha alone (Table 113)) was 0%; in assay [2] (setting [3]), 10%; in assay [2] (Compound A TEA 35 g/ha alone (Table 113)), 10%.

Take `COC(=O)c1nc(-c2ccc(Cl)c(OC)c2F)nc(N)c1Cl` [Compound B Methyl, 6-amino-5-chloro-2-(4-chloro-2-fluoro-3-methoxyphenyl)pyrimidine-4-carboxylic acid methyl ester]: the “ALOMY Ob” value in assay [1] (8.75 g/ha) worked out at 0%; in assay [1] (8.75 g/ha, Table 20), 0%; in assay [1] (8.75 g/ha, Table 22), 0%; in assay [1] (17.5 g/ha), 10%; in assay [1] (17.5 g/ha, Table 20) it was 10%; in assay [1] (17.5 g/ha, Table 22), 10%. In addition, the “ALOMY Ob” value in assay [1] (35 g/ha) came out at 20%; in assay [1] (35 g/ha, Table 20), 20%; in assay [1] (35 g/ha, Table 22), 20%; in assay [1] (70 g/ha) it was 40%; in assay [1] (70 g/ha, Table 20) it was 40%; in assay [1] (70 g/ha, Table 22), 40%.

On to `O=C(O)c1c(Cl)ccc2cc(Cl)cnc12` [Quinclorac], for which the “% Injury ECHCG Ob” value in assay [2] (Quinclorac 70 g/ha alone) and in assay [2] (Quinclorac 140 g/ha alone) was 0% throughout. Besides, the “% Injury ECHOR Ob” value in assay [2] (Quinclorac 70 g/ha alone) amounted to 0%.
